US20090124539A1, “Methods of treating infection” (priority 2007, published 2009)
≈ marks a conversion by molar mass, not a printed value.

Legend:
Enterococci = test: MIC, broth microdilution, summary over Enterococci; format: cell-based; conditions: against Enterococci
Protocol: (§1) The solvent for all of the compounds was deionized water (DIW), and all of the compounds dissolved in the solvent. The stock solutions were allowed to stand in DIW for one hour at room temperature prior to testing to allow time for auto-sterilization.
(§2) The test organisms were originally received from clinical sources, or from the American Type Culture Collection. When received, the organisms were sub-cultured onto an appropriate agar medium. Following incubation, colonies were harvested from these plates and cell suspensions prepared and frozen at −80° C. On the day prior to assay, a frozen vial of each culture was thawed and the contents were streaked for isolation onto either Tryptic Soy Agar (Becton Dickinson, Sparks, Md.) or Tryptic Soy Agar (Enhanced Hemolysis; Becton Dickinson) supplemented with 5% sheep blood for streptococci. The agar plates were incubated overnight at 35° C. […]
(§3) MIC values were determined using a broth microdilution method as recommended by the Clinical and Laboratory Standards Institute (Clinical and Laboratory Standards Institute^a. Methods for Dilution Antimicrobial Susceptibility Tests for Bacteria That Grow Aerobically; Approved Standard-Seventh Edition. Clinical and Laboratory Standards Institute document M7-A7 [ISBN 1-56238-587-9]. Clinical and Laboratory Standards Institute, 940 West Valley Road, Suite 1400, Wayne, Pa. 19087-1898 USA, 2006). […]

Enterococcus faecium = test: MIC, broth microdilution (CLSI); format: cell-based
Protocol: (§4) The stock solutions were allowed to stand in DIW for one hour at room temperature prior to testing to allow time for auto-sterilization.
(§5) The test organisms were originally received from clinical sources, or from the American Type Culture Collection. When received, the organisms were sub-cultured onto an appropriate agar medium. Following incubation, colonies were harvested from these plates and cell suspensions prepared and frozen at −80° C. On the day prior to assay, a frozen vial of each culture was thawed and the contents were streaked for isolation onto either Tryptic Soy Agar (Becton Dickinson, Sparks, Md.) or Tryptic Soy Agar (Enhanced Hemolysis; Becton Dickinson) supplemented with 5% sheep blood for streptococci. The agar plates were incubated overnight at 35° C. Staphylococcus aureus ATCC 29213 and Enterococcus faecalis ATCC 29212 were included as quality control isolates in the assay.
(§6) The test medium for the broth microdilution testing was Mueller Hinton II broth (MHB II; BBL# 212322, Lot # 6024003, Becton Dickinson). The broth was prepared at 1.05× normal weight/volume to offset the 5% volume of the drug solution in the final test plates.
(§7) CLSI guidelines recommend that Mueller-Hinton II broth be adjusted to contain 50 mg/L of Ca^++ ions for proper daptomycin MIC results. Since Mueller-Hinton II broth has already been adjusted by the manufacturer to contain approximately 25 mg/L of Ca^++ ions, an additional 25 mg/L of Ca^++ ions was adjusted with 10 mg/mL of CaCl2.2H2O (Lot# 084K0215; Sigma-Aldrich) added at a rate of 0.1 mL/L of broth, for each desired increment of 1 mg/L. This supplemented Mueller-Hinton II broth was used only in wells containing daptomycin.
(§8) MIC values were determined using a broth microdilution method as recommended by the Clinical and Laboratory Standards Institute (Clinical and Laboratory Standards Institute^a. Methods for Dilution Antimicrobial Susceptibility Tests for Bacteria That Grow Aerobically; Approved Standard-Seventh Edition. Clinical and Laboratory Standards Institute document M7-A7 [ISBN 1-56238-587-9]. Clinical and Laboratory Standards Institute, 940 West Valley Road, Suite 1400, Wayne, Pa. 19087-1898 USA, 2006). Automated liquid handlers (Multidrop 384, Labsystems, Helsinki, Finland; Biomek 2000 and Multimek 96, Beckman Coulter, Fullerton Calif.) were used to conduct serial dilutions and make liquid transfers.
(§9) Wells of two standard 96-well microdilution plates (Falcon 3918; Becton Dickinson) were filled with 150 μL of […] using the Multidrop 384. These plates were used to prepare the drug “mother plates” that provided the serial drug dilutions for replicate “daughter plates”. The Biomek 2000 was used to transfer 150 μl of each stock solution from the wells of column 1 of a deep well plate to the corresponding wells in column 1 of the mother plate and to make eleven 2-fold serial dilutions in the mother plates. The wells of column 12 contained no drug and were the organism growth control wells. Each mother plate has the capacity to create a total of 12 daughter plates.
(§10) The daughter plates were loaded with 180 μL of one of the media described above using the Multidrop 384. The wells of the daughter plates ultimately contained 180 μL of MHB II, 10 μL of drug solution, and 10 μL of bacterial inoculum prepared in broth appropriate to the test organism (1.05×). The daughter plates were prepared on the Multimek 96 instrument, which transferred 10 μL of drug solution from each well of the mother plate to each corresponding well of each daughter plate in a single step.

Staphylococcus aureus [1] = test: MIC, broth microdilution (CLSI); format: cell-based
Protocol: as §4, §5, §6, §7, §8, §9, §10

staphylococci = test: MIC, broth microdilution, summary over staphylococci; format: cell-based; conditions: against staphylococci
Protocol: as §1, §2, §3

Streptococcus pneumoniae = test: MIC, broth microdilution (CLSI); format: cell-based
Protocol: as §1, §5, §6
For streptococci, lysed horse blood (Lot # H88621; Cleveland Scientific, Bath, Ohio) was added to the MHB II at a final concentration of 2%. […]
as §8, §9, §10
Standardized inoculum of each organism was prepared following Clinical and Laboratory Standards Institute (Clinical and Laboratory Standards Institute^b. Performance Standards for Antimicrobial Susceptibility Testing; Sixteenth Informational Supplement. CLSI document M100-S16 [ISBN 1-56238-588-7]. Clinical and Laboratory Standards Institute, 940 West Valley Road, Suite 1400, Wayne, Pa. 19087-1898 USA, 2006) methods. The inoculum for each organism was dispensed into sterile reservoirs divided by length (Beckman Coulter), and the Biomek 2000 was used to inoculate the plates. […]

[2] = test system: Staphylococcus epidermidis; test: MIC, broth microdilution (CLSI); format: cell-based
Protocol: as §1, §5, §6, §7, §8, §9
as §10, with “step. […]” for “step.”

Enterococcus faecalis [3] = test: MIC, broth microdilution (CLSI); format: cell-based
Protocol: as §1, §5, §6, §7, §8, §9
as §10, with “step. […]” for “step.”

Streptococcus pyogenes = test: MIC, broth microdilution (CLSI); format: cell-based
Protocol: as §1, §5, §6
For streptococci, lysed horse blood (Lot # H88621; Cleveland Scientific, Bath, Ohio) was added to the MHB II at a final concentration of 2%.
as §7, §8, §9
as §10, with “step. […]” for “step.”

Staphylococcus aureus [4] = conditions: quality control range for Staphylococcus aureus ATCC 29213 (# 100); cited from earlier work
Enterococcus faecalis [5] = conditions: quality control range for Enterococcus faecalis ATCC 29212 (# 101); cited from earlier work
[6] = Streptococcus pyogenes Micromyx # 942, macrolide^R

Empedopeptin
range of MIC values (Enterococci; all strains tested): 4 to 32 µg/mL
MIC, most strains inhibited (Enterococci; most strains): 8 to 16 µg/mL
MIC (Enterococcus faecium; Enterococcus faecium Micromyx # 750, Van^S): 8 µg/mL
MIC (Enterococcus faecium; Enterococcus faecium Micromyx # 752, Van A): 16 µg/mL
MIC (Enterococcus faecium; Enterococcus faecium Micromyx # 1120, Van B): 16 µg/mL
MIC (Enterococcus faecium; Enterococcus faecium Micromyx # 1721, DAP^R): 32 µg/mL
MIC (Staphylococcus aureus [1]; Staphylococcus aureus Micromyx # 100, MSSA, CLSI QC strain (ATCC 29213)): 4 µg/mL
MIC (Staphylococcus aureus [1]; Staphylococcus aureus Micromyx # 106, RA^R): 0.5 µg/mL
MIC (Staphylococcus aureus [1]; Staphylococcus aureus Micromyx # 1002, MSSA, macrolide^R): 4 µg/mL
MIC (Staphylococcus aureus [1]; Staphylococcus aureus Micromyx # 1004, MRSA, FA^R): 8 µg/mL
MIC (Staphylococcus aureus [1]; Staphylococcus aureus Micromyx # 1016, FA^R): 8 µg/mL
MIC (Staphylococcus aureus [1]; Staphylococcus aureus Micromyx # 1651, LZD^R clinical isolate): 4 µg/mL
MIC (Staphylococcus aureus [1]; Staphylococcus aureus Micromyx # 1723, VISA): 4 µg/mL
MIC (Staphylococcus aureus [1]; Staphylococcus aureus Micromyx # 1727, GM^R): 8 µg/mL
MIC (Staphylococcus aureus [1]; Staphylococcus aureus Micromyx # 1730, Community-acquired MRSA): 4 µg/mL
MIC (Staphylococcus aureus [1]; Staphylococcus aureus Micromyx # 1731, CHL^R): 4 µg/mL
MIC values in the range (staphylococci; all strains tested): 0.5 to 8 µg/mL
MIC, majority of strains inhibited (staphylococci; majority of strains): 4 to 8 µg/mL
MIC (Streptococcus pneumoniae; Streptococcus pneumoniae Micromyx # 374, Wild type): 1 µg/mL
MIC (Streptococcus pneumoniae; Streptococcus pneumoniae Micromyx # 375, parC, gyrB): 2 µg/mL
MIC (Streptococcus pneumoniae; Streptococcus pneumoniae Micromyx # 376, parC, gyrA): 2 µg/mL
MIC (Streptococcus pneumoniae; Streptococcus pneumoniae Micromyx # 379, parC, gyrA, gyrB): 2 µg/mL
MIC (Streptococcus pneumoniae; Streptococcus pneumoniae Micromyx # 927, mef(A)): <0.12 µg/mL
MIC (Streptococcus pneumoniae; Streptococcus pneumoniae Micromyx # 928, erm(B)): 0.5 µg/mL
MIC range (Streptococcus pneumoniae; all strains of S. pneumoniae): ≦0.12-2 μg/mL
MIC ([2]; Staphylococcus epidermidis Micromyx # 108, MRSE): 8 µg/mL
MIC ([2]; Staphylococcus epidermidis Micromyx # 835, MSSE): 8 µg/mL
MIC (Enterococcus faecalis [3]; Enterococcus faecalis Micromyx # 101, VSE, CLSI QC strain (ATCC 29212)): 4 µg/mL
MIC (Enterococcus faecalis [3]; Enterococcus faecalis Micromyx # 413, LZD^R from res. dev. or other): 8 µg/mL
MIC (Enterococcus faecalis [3]; Enterococcus faecalis Micromyx # 486, Van A): 8 µg/mL
MIC (Enterococcus faecalis [3]; Enterococcus faecalis Micromyx # 1088, Van B): 16 µg/mL
MIC (Streptococcus pyogenes; [6]): ≦0.12 μg/mL
MIC (Streptococcus pyogenes; Streptococcus pyogenes Micromyx # 985, Susceptible): ≦0.12 μg/mL
MIC (Streptococcus pyogenes; both S. pyogenes test strains (including the macrolide-resistant strain)): ≤ 0.12 µg/mL

CN[C@H](CC(C)C)C(=O)N[C@H]1C(=O)N[C@@H](CC(N)=O)C(=O)N[C@H]2C(=O)N[C@H]3C(=O)N[C@H](C(=O)N[C@H](C(=O)O)c4cc(O)cc(O)c4-c4cc3ccc4O)[C@H](O)c3ccc(c(Cl)c3)Oc3cc2cc(c3O[C@@H]2O[C@H](CO)[C@@H](O)[C@H](O)[C@H]2O[C@H]2C[C@](C)(N)[C@H](O)[C@H](C)O2)Oc2ccc(cc2Cl)[C@H]1O [Vancomycin, vancomycin]
MIC (Enterococcus faecium; Enterococcus faecium, Enterococcus faecium Micromyx # 750, Van^S): 1 µg/mL (≈ 0.69 µM)
MIC (Enterococcus faecium; Enterococcus faecium, Enterococcus faecium Micromyx # 752, Van A): > 128 µg/mL
MIC (Enterococcus faecium; Enterococcus faecium, Enterococcus faecium Micromyx # 1120, Van B): 32 µg/mL (≈ 22.1 µM)
MIC (Enterococcus faecium; Enterococcus faecium, Enterococcus faecium Micromyx # 1721, DAP^R): > 128 µg/mL
MIC (Staphylococcus aureus [1]; Staphylococcus aureus, ATCC 29213 / MSSA, Staphylococcus aureus Micromyx # 100, MSSA, CLSI QC strain (ATCC 29213)): 2 µg/mL (≈ 1.38 µM)
MIC (Staphylococcus aureus [1]; Staphylococcus aureus, MRSA, Staphylococcus aureus Micromyx # 1004, MRSA, FA^R): 1 µg/mL (≈ 0.69 µM)
MIC (Staphylococcus aureus [1]; Staphylococcus aureus, MRSA, Staphylococcus aureus Micromyx # 1730, Community-acquired MRSA): 2 µg/mL (≈ 1.38 µM)
MIC (Staphylococcus aureus [1]; Staphylococcus aureus, MSSA, Staphylococcus aureus Micromyx # 1002, MSSA, macrolide^R): 1 µg/mL (≈ 0.69 µM)
MIC (Staphylococcus aureus [1]; Staphylococcus aureus, Staphylococcus aureus Micromyx # 106, RA^R): 1 µg/mL (≈ 0.69 µM)
MIC (Staphylococcus aureus [1]; Staphylococcus aureus, Staphylococcus aureus Micromyx # 1016, FA^R): 1 µg/mL (≈ 0.69 µM)
MIC (Staphylococcus aureus [1]; Staphylococcus aureus, Staphylococcus aureus Micromyx # 1651, LZD^R clinical isolate): 1 µg/mL (≈ 0.69 µM)
MIC (Staphylococcus aureus [1]; Staphylococcus aureus, Staphylococcus aureus Micromyx # 1727, GM^R): 1 µg/mL (≈ 0.69 µM)
MIC (Staphylococcus aureus [1]; Staphylococcus aureus, Staphylococcus aureus Micromyx # 1731, CHL^R): 1 µg/mL (≈ 0.69 µM)
MIC (Staphylococcus aureus [1]; Staphylococcus aureus, VISA, Staphylococcus aureus Micromyx # 1723, VISA): 8 µg/mL (≈ 5.52 µM)
MIC (Streptococcus pneumoniae; Streptococcus pneumoniae, Streptococcus pneumoniae Micromyx # 374, Wild type): 0.5 µg/mL (≈ 0.345 µM)
MIC (Streptococcus pneumoniae; Streptococcus pneumoniae, Streptococcus pneumoniae Micromyx # 375, parC, gyrB): 0.5 µg/mL (≈ 0.345 µM)
MIC (Streptococcus pneumoniae; Streptococcus pneumoniae, Streptococcus pneumoniae Micromyx # 376, parC, gyrA): 0.25 µg/mL (≈ 0.173 µM)
MIC (Streptococcus pneumoniae; Streptococcus pneumoniae, Streptococcus pneumoniae Micromyx # 379, parC, gyrA, gyrB): 0.5 µg/mL (≈ 0.345 µM)
MIC (Streptococcus pneumoniae; Streptococcus pneumoniae, Streptococcus pneumoniae Micromyx # 927, mef(A)): 0.5 µg/mL (≈ 0.345 µM)
MIC (Streptococcus pneumoniae; Streptococcus pneumoniae, Streptococcus pneumoniae Micromyx # 928, erm(B)): 0.5 µg/mL (≈ 0.345 µM)
MIC ([2]; Staphylococcus epidermidis): 2 µg/mL (≈ 1.38 µM)
MIC ([2]; Staphylococcus epidermidis, MRSE): 4 µg/mL (≈ 2.76 µM)
MIC (Enterococcus faecalis [3]; Enterococcus faecalis, ATCC29212, Enterococcus faecalis Micromyx # 101, VSE, CLSI QC strain (ATCC 29212)): 4 µg/mL (≈ 2.76 µM)
MIC (Enterococcus faecalis [3]; Enterococcus faecalis, Enterococcus faecalis Micromyx # 413, LZD^R from res. dev. or other): 2 µg/mL (≈ 1.38 µM)
MIC (Enterococcus faecalis [3]; Enterococcus faecalis, Enterococcus faecalis Micromyx # 486, Van A): > 128 µg/mL
MIC (Enterococcus faecalis [3]; Enterococcus faecalis, Enterococcus faecalis Micromyx # 1088, Van B): 128 µg/mL (≈ 88.3 µM)
MIC (Streptococcus pyogenes; Streptococcus pyogenes): 0.5 µg/mL (≈ 0.345 µM)
MIC (Streptococcus pyogenes; [6]): 0.5 µg/mL (≈ 0.345 µM)
MIC, CLSI Recommended Range (Staphylococcus aureus [4]): 0.5 to 2 µg/mL
MIC, CLSI Recommended Range (Enterococcus faecalis [5]): 1 to 4 µg/mL
